≈ marks a conversion by molar mass, not a printed value.
Tests used:
HEK293 = assay: cells; assay type: functional; details: Homo sapiens, ATCC CRL1573, HEK293; ASSAY_TEST Inhibition of Cell Viability; detection method Resazurin; Fluorescence (ex560/em590); MEDIA DMEM with 10% FBS; plate type 384well; TC; CORNING #3712; time 18 hr
Staphylococcus aureus = assay: microbe, parasite or virus in culture; details: ATCC 43300, 18 h, ASSAY_TEST Inhibition of Bacterial Growth, detection method Absorption (OD600), MEDIA CAMHB, plate type 384well, NBS, CORNING #3640
Description: Antibacterial activity against Staphylococcus aureus MRSA ATCC 43300 (CO-ADD:GP_020); MIC in CAMBH media, using NBS plates, by OD(600)

Escherichia coli = assay: microbe, parasite or virus in culture; details: ATCC 25922, 18 h, ASSAY_TEST Inhibition of Bacterial Growth, detection method Absorption (OD600), MEDIA CAMHB, plate type 384well, NBS, CORNING #3640
Description: Antibacterial activity against Escherichia coli ATCC 25922 (CO-ADD:GN_001); MIC in CAMBH media using NBS plates, by OD(600)

Klebsiella pneumoniae = assay: microbe, parasite or virus in culture; details: ATCC 700603, 18 h, ASSAY_TEST Inhibition of Bacterial Growth, detection method Absorption (OD600), MEDIA CAMHB, plate type 384well, NBS, CORNING #3640
Description: Antibacterial activity against Klebsiella pneumoniae MDR ATCC 70063 (CO-ADD:GN_003); MIC in CAMBH media using NBS plates, by OD(600)

Pseudomonas aeruginosa = assay: microbe, parasite or virus in culture; details: ATCC 27853, 18 h, ASSAY_TEST Inhibition of Bacterial Growth, detection method Absorption (OD600), MEDIA CAMHB, plate type 384well, NBS, CORNING #3640
Description: Antibacterial activity against Pseudomonas aeruginosa ATCC 27853 (CO-ADD:GN_042); MIC in CAMBH media using NBS plates, by OD(600)

Acinetobacter baumannii = assay: microbe, parasite or virus in culture; details: ATCC 19606, 18 h, ASSAY_TEST Inhibition of Bacterial Growth, detection method Absorption (OD600), MEDIA CAMHB, plate type 384well, NBS, CORNING #3640
Description: Antibacterial activity against Acinetobacter baumannii ATCC 19606 (CO-ADD:GN_034); MIC in CAMBH media using NBS plates, by OD600

Candida albicans = assay: microbe, parasite or virus in culture; details: ATCC 90028, ASSAY_TEST Inhibition of Fungal Growth, detection method Absorption (OD530), plate type 384well, NBS, CORNING #3640
Description: Antifungal activity against Candida albicans ATCC 90028 (CO-ADD:FG_001); MIC in YNB media using NBS plates, by OD630

Description for Cryptococcus neoformans: Antifungal activity against Cryptococcus neoformans H99 ATCC 208821 (CO-ADD:FG_002); MIC in YNB media using NBS plates, by Resazurin OD(600-570)

Row | MIC (Cryptococcus neoformans) [mg/L] | MIC (Staphylococcus aureus) [mg/L] | MIC (Escherichia coli) [mg/L] | MIC (Klebsiella pneumoniae) [mg/L] | MIC (Pseudomonas aeruginosa) [mg/L] | MIC (Acinetobacter baumannii) [mg/L] | MIC (Candida albicans) [mg/L] | Compound | CC50 (HEK293) [mg/L]
1 | > 32 | ≤ 0.25 | > 32 | > 32 | > 32 | > 32 | > 32 | CC(=O)O[C@H]1C[C@@]2(C)C(C[C@@H](O)C3[C@@]4(C)CC[C@@H](O)[C@@H](C)C4CC[C@@]32C)/C1=C(\CCC=C(C)C)C(=O)O (some centres undefined) | > 32
2 | > 32 | 8 (≈ 11.9 µM) | > 32 | > 32 | > 32 | > 32 | > 32 | CCN/C(=N\CCCN(C)C)OC(=O)/C(CCC=C(C)C)=C1/C2C[C@@H](O)C3[C@@]4(C)CC[C@@H](O)[C@@H](C)C4CC[C@]3(C)[C@@]2(C)C[C@@H]1OC(C)=O (some centres undefined) | 15.4 (≈ 22.9 µM)
3 | 16 (≈ 22.2 µM) | 16 (≈ 22.2 µM) | > 32 | > 32 | > 32 | > 32 | 32 (≈ 44.4 µM) | CC(=O)O[C@H]1C[C@@]2(C)C(C[C@@H](O)C3[C@@]4(C)CC[C@@H](OC(=O)CCCCCN)[C@@H](C)C4CC[C@@]32C)/C1=C(\CCC=C(C)C)C(=O)OCc1ccccc1 (some centres undefined) | 8.27 (≈ 11.5 µM)
4 | 16 (≈ 24.1 µM) | > 32 | > 32 | > 32 | > 32 | > 32 | 32 (≈ 48.2 µM) | CC(=O)O[C@H]1C[C@@]2(C)C(C[C@@H](O)C3[C@@]4(C)CC[C@@H](OC(=O)CN)[C@@H](C)C4CC[C@@]32C)/C1=C(\CCC=C(C)C)C(=O)OCc1ccccc1 (some centres undefined) | 10.8 (≈ 16.3 µM)
5 | > 32 | 32 (≈ 42.4 µM) | > 32 | > 32 | > 32 | > 32 | > 32 | CC(=O)O[C@H]1C[C@@]2(C)C(C[C@@H](O)C3[C@@]4(C)CC[C@@H](OC(=O)c5ccccc5C(=O)O)[C@@H](C)C4CC[C@@]32C)/C1=C(\CCC=C(C)C)C(=O)OCc1ccccc1 (some centres undefined) | 20.6 (≈ 27.3 µM)
6 | > 32 | ≤ 0.25 | > 32 | > 32 | > 32 | > 32 | > 32 | CC(=O)O[C@H]1C[C@@]2(C)C(C[C@@H](O)C3[C@@]4(C)CC[C@@H](O)[C@@H](C)C4CC[C@@]32C)/C1=C(\CCC=C(C)C)C(=O)On1nnc2ccc(Cl)cc21 (some centres undefined) | > 32
7 | > 32 | > 32 | > 32 | > 32 | > 32 | > 32 | > 32 | CC(=O)O[C@H]1C[C@@]2(C)C(C[C@@H](O)C3[C@@]4(C)CC[C@@H](OC(=O)C(N)Cc5ccccc5)[C@@H](C)C4CC[C@@]32C)/C1=C(\CCC=C(C)C)C(=O)OCc1ccccc1 (some centres undefined) | > 32
8 | > 32 | 32 (≈ 44.3 µM) | > 32 | > 32 | > 32 | > 32 | > 32 | CC(=O)O[C@H]1C[C@@]2(C)C(C[C@@H](O)C3[C@@]4(C)CC[C@@H](O)[C@@H](C)C4CC[C@@]32C)/C1=C(\CCC=C(C)C)C(=O)O/C(=N/C1CCCCC1)NC1CCCCC1 (some centres undefined) | 19.9 (≈ 27.5 µM)
